The source of these data is patent US11180452B2, “Methods and compositions for selectively inhibiting pathogenic microbes” (priority 2019, dated 2021).

Assay type in all cases: cell-based
The subject of experiment [1] is Bacillus subtilis. The experiment is described as follows: Bacillus subtilis MIC / MBC. The note with it: for MBC: Bacillus subtilis NRRL: B-571, minimum bactericidal concentration; for MIC: Bacillus subtilis (Ehrenberg 1835) Cohn 1872 NRRL: B-571, read-out: MIC.
Experiment [2] deals with Bacillus thuringiensis. The note with it: Bacillus thuringiensis Berliner ATCC: 10792; for MIC: Bacillus thuringiensis, read-out: MIC.
In experiment [3] the test system is Burkholderia thailandensis Brett et al ATCC: 700388. The experiment is described as follows: microbe, parasite or virus in culture.
Experiment [4] concerns Candida glabrata. The experiment in a line: Candida glabrata MIC / MFC. The note with it: Nakaseomyces glabratus, Candida glabrata #584 (Table 2); for MFC: minimum fungicidal concentration, read-out: MFC; for MIC: read-out: MIC.
Experiment [5] relates to Francisella tularensis subsp. Holarctica Strain LVSR NR-597. The experiment is described as follows: microbe, parasite or virus in culture.
In experiment [6] the test system is Francisella tularensis strains. The experiment in a line: microbe, parasite or virus in culture.

≈ marks a conversion by molar mass, not a printed value. Where two headings read alike, the source gives them in different places.

For the molecule `Clc1ccccc1Sc1c[nH]c2ccc(Br)cc12` [Compound 174AJ, 5-bromo-3-((2-chlorophenyl)thio)-1H-indole], the figures for the MBC in experiment [1] and in experiment [2] were 3.13 µg/mL (≈ 9.24 µM) and 1.56 µg/mL (≈ 4.61 µM), respectively. The MIC in experiment [1] (Bacillus subtilis) is 0.78 µg/mL (≈ 2.3 µM); in experiment [2] it was 0.78 µg/mL (≈ 2.3 µM); in experiment [3], greater than 50 µg/mL; in experiment [4], 6.25 µg/mL (≈ 18.5 µM). In experiment [4], the minimal fungicidal concentration (MFC) – broadly, the lowest tested concentration that kills the fungus rather than only halting it – stood at 25 µg/mL (≈ 73.8 µM).

With `COc1ccc2[nH]cc(Sc3ccccc3Br)c2c1` [Compound 174AS, 3-((2-bromophenyl)thio)-5-methoxy-1H-indole], the MIC in experiment [1] (Bacillus subtilis) is 2 µg/mL (≈ 5.98 µM); in experiment [5], 1 µg/mL (≈ 2.99 µM); in experiment [4], greater than 50 µg/mL.

As to `Oc1ccc2[nH]cc(Sc3ccccc3Br)c2c1` [Compound 174AR, 3-((2-bromophenyl)thio)-1H-indol-5-ol], the MIC stood at 8 µg/mL (≈ 25 µM) in experiment [1] (Bacillus subtilis), 4 µg/mL (≈ 12.5 µM) in experiment [5] and 50 µg/mL (≈ 156 µM) in experiment [4].

For `Clc1cc(Cl)c(Sc2c[nH]c3ccc(Br)cc23)c(Cl)c1` [Compound 174AG, 5-bromo-3-((2,4,6-trichlorophenyl)thio)-1H-indole], the MBC in experiment [1] and in experiment [2] was greater than 50 µg/mL throughout. For the same molecule, the MIC is 4 µg/mL (≈ 9.81 µM) in experiment [1] (Bacillus subtilis), 4 µg/mL (≈ 9.81 µM) in experiment [2], greater than 50 µg/mL in experiment [3] and 6.25 µg/mL (≈ 15.3 µM) in experiment [4]. For the same molecule, the MFC in experiment [4] is greater than 50 µg/mL.

On to `Cc1ccccc1Sc1c[nH]c2ccc(Br)cc12` [Compound 174AY, 5-bromo-3-(o-tolylthio)-1H-indole], for which the MBC (usually the lowest tested concentration that kills the bacteria rather than only halting them) in experiment [1] worked out at 2 µg/mL (≈ 6.28 µM); in experiment [2], 4 µg/mL (≈ 12.6 µM). The MIC in experiment [1] (Bacillus subtilis) worked out at 1 µg/mL (≈ 3.14 µM); in experiment [2], 2 µg/mL (≈ 6.28 µM); in experiment [6] (read-out: F. tularensis BSL-3 MIC, Strain 100), 4 µg/mL (≈ 12.6 µM); in experiment [6] (read-out: F. tularensis BSL-3 MIC, strain HN-63), 2 µg/mL (≈ 6.28 µM); in experiment [6] (read-out: F. tularensis BSL-3 MIC, strain LVS), 4 µg/mL (≈ 12.6 µM); in experiment [6] (read-out: F. tularensis BSL-3 MIC, strain MA00-2987) it was 3.67 µg/mL (≈ 11.5 µM). In addition, the MIC in experiment [6] (read-out: F. tularensis BSL-3 MIC, strain MO #1) came to 2 µg/mL (≈ 6.28 µM); in experiment [6] (read-out: F. tularensis BSL-3 MIC, strain MO #2), 3.33 µg/mL (≈ 10.5 µM); in experiment [6] (read-out: F. tularensis BSL-3 MIC, strain MO #3), 3.67 µg/mL (≈ 11.5 µM); in experiment [6] (read-out: F. tularensis BSL-3 MIC, strain OR-96), 4 µg/mL (≈ 12.6 µM); in experiment [6] (read-out: F. tularensis BSL-3 MIC, strain SCHU S4), 4 µg/mL (≈ 12.6 µM); in experiment [6] (read-out: F. tularensis BSL-3 MIC, strain WY-96) it was 4 µg/mL (≈ 12.6 µM). Further, the MIC in experiment [6] (read-out: MAX, highest MIC over the Francisella tularensis strains) worked out at 4 µg/mL (≈ 12.6 µM); in experiment [6] (read-out: MIN, lowest MIC over the Francisella tularensis strains) it was 2 µg/mL (≈ 6.28 µM); in experiment [5], 1 µg/mL (≈ 3.14 µM). Also, the MIC50 in experiment [6] was 3.83 µg/mL (≈ 12 µM).

In the case of `Brc1ccc(Sc2cnc3ccccn23)cc1` [Compound 174AN, 3-((4-bromophenyl)thio)imidazo[1,2-a]pyridine], the MIC in experiment [1] (Bacillus subtilis) was found to be 16 µg/mL (≈ 52.4 µM); in experiment [4] it was 50 µg/mL (≈ 164 µM).

In the case of `COc1ccc2[nH]cc(Sc3ccccc3O)c2c1` [Compound 174AQ, 2-((5-methoxy-1H-indol-3-yl)thio)phenol], the values for the MIC in experiment [1] (Bacillus subtilis), in experiment [5] and in experiment [4] were 32 µg/mL (≈ 118 µM), 16 µg/mL (≈ 59 µM) and 50 µg/mL (≈ 184 µM), respectively.

`Cc1[nH]c2ccc(O)cc2c1Sc1ccccc1N` [Compound 174AK, 3-((2-aminophenyl)thio)-2-methyl-1H-indol-5-ol] returned an MBC in experiment [1] greater than 50 µg/mL. The MIC in experiment [1] (Bacillus subtilis) was 50 µg/mL (≈ 185 µM); in experiment [2] it was greater than 50 µg/mL; in experiment [3] it was greater than 50 µg/mL; in experiment [4] it was greater than 50 µg/mL.

Regarding `Cc1[nH]c2ccccc2c1Sc1ccc(Br)cc1` [Compound 172C, 3-((4-bromophenyl)thio)-2-methyl-1H-indole], the MIC in experiment [3] is greater than 50 µg/mL.

On to `Brc1ccc(Sc2c[nH]c3c(Br)cc(Br)cc23)cc1` [Compound 174AC, 5,7-dibromo-3-((4-bromophenyl)thio)-1H-indole], for which the results for the MBC in experiment [1] and in experiment [2] were 16 µg/mL (≈ 34.6 µM) and 50 µg/mL (≈ 108 µM), respectively. Also, the MIC is 8 µg/mL (≈ 17.3 µM) in experiment [1] (Bacillus subtilis), 8 µg/mL (≈ 17.3 µM) in experiment [2], greater than 50 µg/mL in experiment [3] and 25 µg/mL (≈ 54.1 µM) in experiment [4].

On to `Cc1[nH]c2ccc(O)cc2c1Sc1ccccc1O` [Compound 174AO, 3-((2-hydroxyphenyl)thio)-2-methyl-1H-indol-5-ol], for which the MIC in experiment [1] (Bacillus subtilis) is 50 µg/mL (≈ 184 µM); in experiment [5], 50 µg/mL (≈ 184 µM); in experiment [4] it was greater than 50 µg/mL.

As to `Clc1c(Cl)c(Cl)c(Sc2c[nH]c3ccc(Br)cc23)c(Cl)c1Cl` [Compound 174AD, 5-bromo-3-((perchlorophenyl)thio)-1H-indole], the figures for the MIC in experiment [1], in experiment [2] and in experiment [3] were 16 µg/mL (≈ 33.6 µM), 32 µg/mL (≈ 67.2 µM) and greater than 50 µg/mL, respectively. The MBC in experiment [1] was 50 µg/mL (≈ 105 µM); in experiment [2] it was greater than 50 µg/mL.

For `Brc1ccc2[nH]cc(Sc3cc(Br)c(Br)c(Br)c3)c2c1` [Compound 174AH, 5-bromo-3-((3,4,5-tribromophenyl)thio)-1H-indole], the MBC in experiment [1] and in experiment [2] was greater than 50 µg/mL in each case. Besides, the MIC in experiment [1] (Bacillus subtilis) is 8 µg/mL (≈ 14.8 µM); in experiment [2] it was 8 µg/mL (≈ 14.8 µM); in experiment [3], greater than 50 µg/mL; in experiment [4] it was greater than 50 µg/mL.

Turning to `Oc1ccc2[nH]cc(Sc3ccccc3O)c2c1` [Compound 174AP, 3-((2-hydroxyphenyl)thio)-1H-indol-5-ol], the MIC in experiment [1] (Bacillus subtilis) was 50 µg/mL (≈ 194 µM); in experiment [5] it was 50 µg/mL (≈ 194 µM); in experiment [4], greater than 50 µg/mL.

Consider `OCc1ccccc1Sc1c[nH]c2ccc(Br)cc12` [Compound 174AT, (2-((5-bromo-1H-indol-3-yl)thio)phenyl)methanol], for which the MBC in experiment [1] and in experiment [2] was 16 µg/mL (≈ 47.9 µM) each time. Besides, the MIC is 8 µg/mL (≈ 23.9 µM) in experiment [1] (Bacillus subtilis), 8 µg/mL (≈ 23.9 µM) in experiment [2], 8 µg/mL (≈ 23.9 µM) in experiment [5] and 50 µg/mL (≈ 150 µM) in experiment [4].
